The values that follow come from patent publication US20260285834A1, “SUBSTITUTED PYRIDINE DERIVATIVES AS SARM1 INHIBITORS” (Nura Bio, Inc., priority 2022, published 2026).

Each structure is given as a SMILES string. Some results are limits rather than exact numbers.

In the first assay the target is T1, human SARM1(50-724) (Homo sapiens, UniProt Q6SZW1).
T1 construct: 40 nM human SARM1(50-724)
T1 sequence (Q6SZW1 50-724): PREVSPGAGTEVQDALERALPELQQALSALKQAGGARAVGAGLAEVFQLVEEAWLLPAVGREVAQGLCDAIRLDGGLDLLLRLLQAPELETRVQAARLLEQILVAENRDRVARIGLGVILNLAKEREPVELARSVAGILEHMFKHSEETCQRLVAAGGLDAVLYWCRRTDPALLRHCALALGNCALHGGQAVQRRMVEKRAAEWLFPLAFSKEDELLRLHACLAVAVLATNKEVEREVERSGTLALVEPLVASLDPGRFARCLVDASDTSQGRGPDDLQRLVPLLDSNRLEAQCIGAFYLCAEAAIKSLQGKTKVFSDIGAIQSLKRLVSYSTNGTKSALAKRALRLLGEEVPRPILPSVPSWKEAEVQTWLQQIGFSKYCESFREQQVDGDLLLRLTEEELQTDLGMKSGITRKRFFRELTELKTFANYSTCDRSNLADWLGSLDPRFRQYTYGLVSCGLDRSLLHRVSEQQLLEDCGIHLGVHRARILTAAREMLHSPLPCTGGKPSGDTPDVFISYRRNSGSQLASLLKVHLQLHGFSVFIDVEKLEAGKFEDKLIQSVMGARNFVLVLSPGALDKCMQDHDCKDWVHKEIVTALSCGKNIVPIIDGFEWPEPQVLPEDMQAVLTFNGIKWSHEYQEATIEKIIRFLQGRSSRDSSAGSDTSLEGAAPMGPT
Briefly: SARM1 biological assay: HPLC measurement of NAD and NAM peak areas. The class given is biochemical.
Details: not given
The method, then: Each reaction was run at a volume of 20 μL containing 50 μM compound (dissolved in DMSO; final concentration of DMSO is 1% v/v), 40 nM human SARM1(50-724), 0.3 mM NMN, 20 μM NAD, 1 mM TCEP, 25 mM HEPES pH 7.4, 10 mM KCl and 10 mM MgCl2. The reaction was incubated at room temperature for 60 minutes and quenched with 20 μL of 0.4% formic acid. The samples were run on Agilent HPLC 1260 Infinity II with Synergi 2.5 μM Fusion-RP 100 Å (100×3.0 mm) LC column from Phenomenex. Total run time for each sample was 4 minutes. The run was isocratic with 1.5% methanol in 40 mM ammonium acetate pH 6.0. Samples were run at a flow rate of 0.8 mL/min at 55° C. Peak areas of NAD and NAM were determined using OpenLAB CDS (Chem Station edition) software. For dose-response, the compound was diluted serially 1:3 in DMSO and added to the reaction starting at a final compound concentration of 100 μM in 1% DMSO.
Usually IC50 stands for the concentration needed to halve the response being measured. `FC(F)(F)O[C@H]1C[C@H](c2nc(Cc3ccncc3)c[nH]2)C1` [Example 37B, (trans)-4-((2-(3-(Trifluoromethoxy)cyclobutyl)-1H-imidazole-4-yl)methyl)pyridine]: the IC50 is 1 to 10 µM. As for `F[C@@]1(Cl)C[C@H]1c1nc(Cc2ccncc2)c[nH]1` (single isomer, unassigned) [Example 39C], the half-inhibitory concentration (IC50) was under 1 µM. Still for that read-out and setting: with `FC1(F)CN(c2nc(Cc3ccncc3)c[nH]2)C1` [Example 2, 4-((2-(3,3-Difluoroazetidin-1-yl)-1H-imidazol-4-yl)methyl)pyridine] the figure was 1 to 10 µM. Turning to `FC1(Cl)CC1c1nc(Cc2ccncc2)c[nH]1` (stereo not drawn) [Example 39, 4-((2-(2-Chloro-2-fluorocyclopropyl)-1H-imidazol-4-yl)methyl)pyridine], the IC50 was under 1 µM. With `ClC1(Cl)C[C@@H]1c1nc(Cc2ccncc2)c[nH]1` (single isomer, unassigned) [Example 33A], the IC50 is under 1 µM. On the same count and under the same terms, in the case of `C[C@@]1(c2nc(Cc3ccncc3)c[nH]2)CC1(F)F` (single isomer, unassigned) [Example 10B] it was under 1 µM.

As to `ClC1(Cl)CC1c1nc(Cc2ccncc2)c[nH]1` (stereo not drawn) [Example 6, 4-((2-(2,2-Dichlorocyclopropyl)-1H-imidazol-4-yl)methyl)pyridine], the IC50 is under 1 µM. Still for that read-out and setting: with `FC1(F)CC(Cc2nc(Cc3ccncc3)c[nH]2)C1` [Example 24, 4-((2-((3,3-Difluorocyclobutyl)methyl)-1H-imidazol-4-yl)methyl)pyridine] the figure was 1 to 10 µM; with `Fc1cnccc1Cc1coc(C2CC(F)(F)C2)n1` [Example 4A, 2-(3,3-Difluorocyclobutyl)-4-((3-fluoropyridin-4-yl)methyl)oxazole], 10 to 100 µM; with `FC(F)(F)Sc1ncc(Cc2ccncc2)[nH]1` [Example 28, 4-((2-((Trifluoromethyl)thio)-1H-imidazol-5-yl)methyl)pyridine], under 1 µM. For `FC1(F)C[C@@H]1Cc1nc(Cc2ccncc2)c[nH]1` (single isomer, unassigned) [Example 21A], the IC50 is under 1 µM.

`FC(F)(F)C1(c2nc(Cc3ccncc3)c[nH]2)CC1` [Example 16]: the IC50 lay within 1 to 10 µM. `FC1(F)C[C@H]1Cc1nc(Cc2ccncc2)c[nH]1` (single isomer, unassigned) [Example 21B]: the 50% inhibitory concentration (IC50) was under 1 µM.

Staying with this assay, now noted: 40 nM human SARM1(50-724), 0.3 mM NMN, 20 μM NAD, 60 min at room temperature; dose-response 1:3 serial dilution from 100 μM; read-out: Average IC50.
With `N#CC1(F)CC(c2nc(Cc3ccncc3)c[nH]2)C1` (stereo not drawn) [Example 38A], the IC50 fell in the range of 1 to 10 µM.

The same assay, now with this note: read-out: Average IC50; 40 nM human SARM1(50-724), 0.3 mM NMN, 20 μM NAD, 60 min at room temperature; dose-response 1:3 serial dilution from 100 μM.
Regarding `FC1(F)CC1c1nc(Cc2ccncc2)c[nH]1` (single isomer, unassigned) [Example 5B], the IC50 was under 1 µM.
